Data taken from patent US5106407A, “Iodones and methods for antimicrobial use” (priority 1989, dated 1992).
In brackets after ≈: the same amount, converted by molar mass.

How the values were obtained:
[1] = tested on: Pseudomonas aeruginosa PRD-10; test: minimum inhibitory concentration (MIC), agar dilution; type: cell-based; details: Pseudomonas aeruginosa, ATCC15442; ATCC 15442; nutrient agar pH 6.8; read-out: MIC
Procedure: (§1) The minimum inhibitory concentration (MIC) for the compound of Example 19, i.e., (2-nitrophenyl)-iodonium 2,2-dimethyl-4,6-dioxo-1,3-dioxan-5-ylide was determined for 9 bacteria (using nutrient agar) and 5 yeast and fungi (using malt yeast agar). A one percent solution of this test compound (i.e., the compound of Example 19) was prepared in a mixture of acetone-water. Nutrient agar was prepared at pH 6.8 using deionized water according to standard Difco procedures. Malt yeast agar was prepared by adding 3 g Bacto yeast extract and 42 g Bacto Malt agar per liter of deionized water. The agar (nutrient agar when testing with bacteria and malt yeast agar when testing with yeast and fungi) was dispensed in 30 mL aliquots into 25×200 millimeter (mm) test tubes, capped and autoclaved for 15 min at 115° C. The test tubes containing the agar were cooled in a water bath until the temperature of the agar was 48° C. and then an appropriate amount of the one percent solution of the test compound was added (except in the controls where no test compound was added with the acetone-water) to the respective test tubes so that final concentrations of 500, 250, 100, 50, 25, 10, 5, 2.5, 1.0 and 0 parts per million (ppm) of the test compound in the agar were obtained. The agar solutions were each mixed and poured into individual petri plates so that each petri plate contained agar having a known concentration of test compound dispersed therein. After drying for 24 hr, the petri plates were inoculated with bacteria when the petri plates contained nutrient broth agar or with fungi and yeast when the petri plates contained malt yeast agar.
(§2) The inoculation with bacteria was accomplished using the following procedure. Twenty-four hr cultures of each of the bacteria were prepared by incubating the respective bacteria in tubes containing nutrient broth for 24 hr at 30° C. in a shaker. Dilutions of each of the 24 hr cultures were made so that 9 separate suspensions (one for each of the 9 test bacteria) were made, each containing about 10^8 colony forming units (CFU) per mL of suspension of a particular bacteria. Aliquots of 0.3 mL of each of the above suspensions were used to fill individual wells of a Steer's Replicator. For each microbial suspension, 0.3 mL was used to fill 3 wells (i.e., 3 wells of 0.3 mL each) so that for the 9 different bacteria 27 wells were filled. The Steer's Replicator was then used to inoculate the petri plates.
(§3) The petri plates were incubated at 30° C. for 48 hr and then read to determine if the test compound (i.e., the compound of Example 19) which was incorporated into the agar prevented growth of the respective bacteria. The minimum inhibitory concentration (MIC) for each bacteria was defined as the lowest concentration of the test compound which prevented growth of that bacteria.
(§4) In a similar procedure, the MIC (in ppm) of the compound of Example 11 (i.e., (2-nitrophenyl)-iodonium 2,6-dioxocyclohexylide) for various organisms was determined at an acid pH (about 6.8) and at an alkaline pH (about 8.2).

[2] = tested on: Klebsiella pneumoniae; test: as above; type: cell-based; details: Klebsiella pneumoniae, ATCC8308; ATCC 8308; nutrient agar pH 6.8; read-out: MIC
Procedure: as §1, §2, §3, §4

[3] = tested on: Pseudomonas aeruginosa; test: as above; type: cell-based; details: Pseudomonas aeruginosa, ATCC10145; ATCC 10145; nutrient agar pH 6.8; read-out: MIC
Procedure: as §1, §2, §3, §4

[4] = tested on: Staphylococcus aureus; test: as above; type: cell-based; details: Staphylococcus aureus, ATCC6538; ATCC 6538; nutrient agar pH 6.8; read-out: MIC
Procedure: as §1, §2, §3, §4

[5] = tested on: Salmonella choleraesuis; test: as above; type: cell-based; details: Salmonella enterica, ATCC 10708 / CHOLERAESUIS, nutrient agar pH 6.8, read-out: MIC
Procedure: as §1, §2, §3, §4

[6] = tested on: Proteus vulgaris; test: as above; type: cell-based; details: Proteus vulgaris, ATCC881; ATCC 881; nutrient agar pH 6.8; read-out: MIC
Procedure: as §1, §2, §3, §4

[7] = tested on: mixture of bacterial organisms listed in Table 1; test: cutting oil preservation test;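 further: colony count scale from 1 for no colonies up to 10 for a solid mass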
Procedure: Fifty gram aliquots of the latex were placed in sterile bottles and one hundred gram aliquots of the diluted cutting oil were placed in 250-mL Erlenmeyer flasks. An appropriate amount of a fresh 1 percent stock solution of (2-nitrophenyl)-iodonium 2,2-dimethyl-4,6-dioxo-1,3-dioxan-5-ylide in acetone-water was added to achieve the desired final concentrations (see Tables 5 and 6). A small portion of the respective latex or cutting oil preparation was then streaked onto Tryptic Soy Agar (TSA) petri plates using sterile cotton swabs to determine whether the preparations were sterile. If the particular preparation was sterile, it was then inoculated with an appropriate volume (0.1 mL for the latex and 0.2 mL for the cutting oil) of a mixture of equal aliquots of 24 hr cultures of each of the bacterial organisms listed in Table 1 (not the fungi and yeast). The latex samples were incubated at 30° C. and the cutting oils were agitated on a rotary shaker at room temperature. After 24 hr, all samples were again streaked on TSA. All plates were then incubated at 30° C. for 48 hr and then rated 1 to 10 according to the growth rating system described in Table 4.
The results from this first set of streaks after inoculation are listed in the columns labeled streak number 1 in Tables 5 and 6. Samples with a rating of 3 or less from streak number 1 were reinoculated as described for the first inoculation above. Samples with a rating of 4 or greater were not reinoculated. After another 24 hr all samples were again restreaked on TSA agar. The results from these second streaks were labeled streak number 2 in Tables 5 and 6. Samples were reinoculated and restreaked in this fashion for a maximum of 10 streaks. Any samples with two streaks in a row with a ten rating were not restreaked again.

CC1(C)OC(=O)[C-]([I+]c2ccccc2[N+](=O)[O-])C(=O)O1 [Example 19, (2-Nitrophenyl)-iodonium 2,2-dimethyl-4,6-dioxo-1,3-dioxan-5-ylide]
MIC [1]: 10 µg/mL (≈ 25.6 µM) | MIC [2]: ≤ 1 µg/mL | MIC [3]: 10 µg/mL (≈ 25.6 µM) | MIC [4]: ≤ 1 µg/mL | MIC [5]: ≤ 1 µg/mL | MIC [6]: ≤ 1 µg/mL | growth rating ([7]; 25 ppm, streak 1): 1 (0) | growth rating ([7]; 25 ppm, streak 2): 9 | growth rating ([7]; 25 ppm, streak 3): 10 | growth rating ([7]; 25 ppm, streak 4, restreaking not continued): 10 | growth rating ([7]; 50 ppm, streak 1): 1 (0) | growth rating ([7]; 50 ppm, streak 2): 2 (1-4) | growth rating ([7]; 50 ppm, streak 3): 10 | growth rating ([7]; 50 ppm, streak 4, restreaking not continued): 10 | growth rating ([7]; 100 ppm, streak 1): 1 (0) | growth rating ([7]; 100 ppm, streak 2): 2 (1-4) | growth rating ([7]; 100 ppm, streak 3): 2 (1-4) | growth rating ([7]; 100 ppm, streak 4): 1 (0) | growth rating ([7]; 100 ppm, streak 5): 10 | growth rating ([7]; 100 ppm, streak 6, restreaking not continued): 10 | growth rating ([7]; 250 ppm, streak 1): 1 (0) | growth rating ([7]; 250 ppm, streak 2): 1 (0) | growth rating ([7]; 250 ppm, streak 3): 1 (0) | growth rating ([7]; 250 ppm, streak 4): 1 (0) | growth rating ([7]; 250 ppm, streak 5): 1 (0) | growth rating ([7]; 250 ppm, streak 6): 1 (0) | growth rating ([7]; 250 ppm, streak 7): 1 (0) | growth rating ([7]; 250 ppm, streak 8): 1 (0) | growth rating ([7]; 250 ppm, streak 9): 6 (51-100) | growth rating ([7]; 250 ppm, streak 10): 10 | growth rating ([7]; 500 ppm, streak 1): 1 (0) | growth rating ([7]; 500 ppm, streak 2): 1 (0) | growth rating ([7]; 500 ppm, streak 3): 1 (0) | growth rating ([7]; 500 ppm, streak 4): 1 (0) | growth rating ([7]; 500 ppm, streak 5): 1 (0) | growth rating ([7]; 500 ppm, streak 6): 1 (0) | growth rating ([7]; 500 ppm, streak 7): 1 (0) | growth rating ([7]; 500 ppm, streak 8): 1 (0) | growth rating ([7]; 500 ppm, streak 9): 1 (0) | growth rating ([7]; 500 ppm, streak 10): 1 (0) | growth rating ([7]; 1000 ppm, streak 1): 1 (0) | growth rating ([7]; 1000 ppm, streak 2): 1 (0) | growth rating ([7]; 1000 ppm, streak 3): 1 (0) | growth rating ([7]; 1000 ppm, streak 4): 1 (0) | growth rating ([7]; 1000 ppm, streak 5): 1 (0) | growth rating ([7]; 1000 ppm, streak 6): 1 (0) | growth rating ([7]; 1000 ppm, streak 7): 1 (0) | growth rating ([7]; 1000 ppm, streak 8): 1 (0) | growth rating ([7]; 1000 ppm, streak 9): 1 (0) | growth rating ([7]; 1000 ppm, streak 10): 1 (0)
